# Where a name gives a salt, the structure may show the parent alone.
# Tested on: mechanical allodynia of the post-operative pain model
# Assay: Mechanical allodynia (von Frey filaments) in the post-operative pain model (plantar incision) in rats
# Type: in vivo
# Protocol: The induction of anesthesia in rats was performed with 3% isofluran for veterinary use, employing an Ohmeda vaporizer and an anesthesia chamber. Anesthesia was kept during the surgical operation by a tube which directs the isofluran vapors to the animal's snout. Once the rats were anesthetized, they were laid down in a prone position and their right hind paws were cleaned out with alcohol.
# Then, a skin incision in the hindpaw of about 10 mm was made by means of a scalpel, starting about 5 mm from the heel and extending toward the toes. Fascia was located and by means of curve scissors muscle was elevated and a longitudinal incision of about 5 mm was made, thus the muscle origin and insertion remained intact. The skin of the paw was stitched with a suturing stitch with breaded silk (3.0) and the wound was cleaned out with povidone.
# The assessment was performed 30 minutes after the administration of product and always 4 hours after the plantar incision. The analysis was carried out evaluating the mechanical allodynia. It was tested using von Frey filaments: Animals were placed in methacrylate cylinders on an elevated surface, with metallic mesh floor perforated in order to apply the filaments. After an acclimation period of about 30 minutes within the cylinders, both hindpaws were stimulated (the injured and the non-injured paw, serving the latter as control), starting with the lowest force filament (0.4 g) and reaching a 15 g filament. The animal's response to pain was manifested by the withdrawal of the paw as a consequence of the painful stimulus caused by a filament.
# (§1) The efficacy of the combined use of venlafaxine and compound 63.HCl was tested at different doses of compound 63.HCl (5, 10, 20, 40 and 80 mg/kg), while the venlafaxine dose remained constant (2.5 mg/kg). The administrations were performed 3.5 hours after surgery. The treated subjects were tested according to the mechanical allodynia protocol above (FIG. 1).
# as §1, with “duloxetine” for “venlafaxine”, “(10,” for “(5, 10,”, “(0.625” for “(2.5”, “2).” for “1).”
compound,measurement,setting,value
"CNCC[C@H](Oc1cccc2ccccc12)c1cccs1 [Duloxetine, duloxetine]",effect on mechanical allodynia (analgesia),"FIG. 2, Duloxetine alone, sub-active dose 0.625 mg/kg",non-significant effect
"COc1ccc(C(CN(C)C)C2(O)CCCCC2)cc1 (stereo not shown) [Venlafaxine, venlafaxine]",effect on mechanical allodynia (analgesia),"FIG. 1, Venlafaxine alone, sub-active dose 2.5 mg/kg",non-significant effect
"Cc1cc(OCCN2CCOCC2)nn1-c1ccc2ccccc2c1 [compound 63.HCl, 4-{2-[5-Methyl-1-(naphthalen-2-yl)-1H-pyrazol-3-yloxy]ethyl}morpholine hydrochloride]","maximum effect (analgesia, mechanical allodynia)","FIG. 1, compound 63.HCl alone, 5-80 mg/kg, assessed 30 min after administration, 4 h after plantar incision",43%
same,ED50,"Rattus norvegicus, FIG. 2, compound 63.HCl alone, 10-80 mg/kg, read-out: ED50 (analgesia, mechanical allodynia)",40 mg/kg
